The values below come from patent publication US20150147792A1, “Betaine Enhancement of Fermentation to make C4 Diacids” (ARCHER DANIELS MIDLAND COMPANY, priority 2012, published 2015).

Assay [1] concerns Actinobacillus Succinogenes. The settings on record: osmoprotectant added to media; cited from earlier work.
Assay [2] deals with A. succinogenes strain FZ45 830.60. Put plainly: Production fermentation of dextrose to succinic acid, strain FZ45 830.60. In kind it is cell-based, Actinobacillus succinogenes. From the text:
In a medium containing 90-155 g/l of dextrose as the primary carbon source supplemented with 15 g/liter of a commercial yeast extract (TASTONE™ 900AG from Sensient, Milwaukee, Wis.) the 830.60 strain was capable of producing a titer of 100 g/l of succinic acid with a 85-90% yield from dextrose at a productivity rate of 2 To 3 g/liter/hour.
For the present work, a variety of media alterations were tried in an attempt to substitute the commercial yeast extract with corn steep liquor and/or with a locally produced homogenized yeast extract made by homogenizing aerobically grown yeast produced incident to ethanol fermentation, and/or by supplementing the media with betaine and/or glutamate. To distinguish commercial yeast extract, which is available from distributors a dry powder, from a homogenate of yeast cells made locally by rupturing yeast cells in liquid suspension, the latter is referred to herein as “local yeast homogenate”
Corn steep liquor (CSL) was used as the target nutrient source to substitute for yeast extract. CSL is a by-product of wet corn milling obtained by steeping corn grain in water containing a small amount of a sulfide compound for several hours. CSL is rich in low molecular weight organic acids, some carbohydrates, vitamins and minerals that are released from the corn grain. The amount of CSL and local yeast homogenate is shown in terms of dry solids basis (dsb) meaning the amount of material added excluding water weight, per liter of fermentation. Glutamate was added in the form of monosodium glutamate (MSG) and betaine was added in the form of the anhydrous base in the amounts shown. Dextrose was present at between 90 and 125 g/l in all starting media.
Local yeast homogenate was obtained by aerobically growing an ethanol producing strain of the bakers yeast S. cerevesiae on dextrose until the culture reached stationary phase, recovering the yeast cells as paste, and homogenizing the yeast paste with an APV Gaulin French press type homogenizer at a pressures of 12,500 psi or greater. The glutamic acid was added in the form of monosodium glutamate, and the betaine was betaine base anhydrous from MP Biomedicals
Inoculum Medium A. succinogenes strain FZ45830,60, provided by MBI International, was grown in two 100 ml serum bottles each containing 50 ml of inoculum medium incubated at 38° C. for 15-24 hours by shaking in a rotary incubator at 180 rpm, which was then used as 5% vol/vol inoculum for final fermenter volume of 2.0 liters in a 7.5 lite fermenter. The inoculum medium was prepared in two steps. In the first step, 4 g of MgCO3 was weighed into a 100 ml Wheaton serum bottle containing 30 ml of distilled water, which was then sealed, autoclaved and cooled. In the second step the remaining ingredients, which were prepared as supplemental sterilized solutions, were added to the serum bottle with a sterile syringe. The supplemental solutions and formulation of the inoculum media are shown below.
The serum bottle was inoculated with 1.5 ml of an overnight culture grown in the same medium. The serum bottle was flushed and overlaid with CO2 before incubation
Seed Medium A New Brunswick EPPENDORF BiOFLO 310-7.5 liter fermenter was inoculated with the 2 serum bottles containing the inoculation culture for initial production fermentation studies or as a seed culture for larger scale fermentations. The operating conditions are listed below:
The seed medium contained 4 g/l CSL dsb, 14 g/l TASTONE 900AG yeast extract, 0.0002 g/l biotin, 10 ml/l 0.5M sodium phosphate buffer and 100 g/l dextrose. The pH was adjusted with a 35% Mg(OH)2 slurry. The seed fermenter was inoculated at 5% v/v from the incubated serum bottle culture and was harvested in the early log phase (e.g., an increase in OD of 3 to 4 units) other measure of early log phase?) Two hundred ml of the seed culture was used to inoculate 4 liters of media in a second 7.5 liter production fermenter. […]

Take `O=C(O)[C@@H]1CCCN1` [proline]: the increase in productivity in assay [1] is reported as 22%.
As to `O=C(O)CCCC[C@@H]1SC[C@@H]2NC(=O)N[C@@H]21` [biotin], the “effect on yield from glucose” value in assay [2] (betaine provided as sole non-nutrative supplement) is “did not statistically increase the yield from glucose”.
For `C[N+](C)(C)CC(=O)O` [betaine, N,N,N-trimethylglycine], in assay [2] (betaine 0.1 to 1 g/liter), the succinic acid produced was in the range of 70 to 115 g/L and the “succinic acid produced, concentration” value lay in the range of 590 to 980 mM. Besides, in assay [2] (betaine 1 g/liter, Table 1), the productivity rate was 2.4-2.9 g per liter per hour, the titer fell in the range of 90 to 104 g/L and the yield from glucose result was “about 85%”.
